Laboratory results as given in US20220152077A1 (THE UNIVERSITY OF WARWICK, priority 2019, published 2022).
Entries after “also recorded” stand apart in the source; their conditions may differ. Where two headings read alike, the source gives them in different places.

Columns and labels:
[1] = system: synaptic transmission in the hippocampus; test: Extracellular fEPSP recording in hippocampal slices (synaptic transmission); assay type: cell-based, rat
Description: (§1) Preparation of hippocampal slices: Sagittal slices of hippocampus (300-400 μm) were prepared from male Sprague Dawley rats, at postnatal days 12 to 20. Rats were kept on a 12-hour light-dark cycle with slices made 90 minutes after entering the light cycle. […] The brain was removed, cut down the mid line and the two sides of the brain stuck down to a metal base plate. […] Slices were stored at 34° C. for 1 to 6 hours in aCSF (1 mM MgCl2, 2 mM CaCl2) before use.
Extracellular recording: A slice was transferred to the recording chamber, submerged in aCSF and perfused at 4 to 6 mL/min (32° C.). The slice was placed on a grid allowing perfusion above and below the tissue and all tubing was gas tight (to prevent loss of oxygen). For extracellular recording, an aCSF filled microelectrode was placed on the surface of stratum radiatum in CA1. […] For fEPSPs a 10 to 20 minute baseline was recorded at a stimulus intensity that gave 40 to 50% of the maximal response. […] For fEPSP slope, a 1 ms linear region after the fibre volley was measured. Extracellular recordings were made independently on two electrophysiology rigs.
Statistical significance was tested using the unpaired t-test and one-way and two-way ANOVAs with Bonferroni correction for multiple comparisons.
(§2) Data Analysis. […] Statistical significance was tested as indicated in the text using paired or unpaired t-tests or one-way or two-way ANOVAs with repeated measures (RM) as appropriate. Bonferroni corrections for multiple comparisons were performed. All in vitro cell signalling assay data was analysed using Prism 7.0e (Graphpad software, San Diego, Calif.), with all concentration-response curves being fitted using a 3 parameter logistic equation to calculate response range and IC50. All cAMP data was normalised to a forskolin concentration-response curve ran in parallel to each assay. […] Radioligand displacement curves were fitted to the one-site competition binding equation yielding log Ki values. […] To determine the extent of ligand-induced recruitment of β-arrestin2-YFP to either the A1R or A3R, the BRET signal was calculated by subtracting the 530 nm/450 nm emission for vehicle-treated cells from ligand-treated cells (ligand-induced ΔBRET). ΔBRET for each concentration at 5 minutes (maximum response) was used to produce concentration-response curves.

[2] = system: seizure activity induced in hippocampal slices; test: Seizure model in hippocampal slices (no added Mg2+, 6 mM K+ aCSF); assay type: cell-based, rat; conditions: adenosine 20-100 μM, NECA 300 nM, CPA 300 nM, BnOCPA 300 nM to 1 μM
Description: as §1
Seizure model: Seizure activity was induced in hippocampal slices using aCSF which contained no added Mg^2+ and with the total K^+ concentration increased to 6 mM with KCl. Removal of extracellular Mg^2+ facilitates NMDA receptor activation producing long lasting EPSPS, which can sum together to produce tonic activation. Increasing the extracellular concentration of K^+ depolarises neurons leading to firing and release of glutamate to sustain activity. Both the increase in K^+ concentration and removal of Mg^2+ are required to produce spontaneous activity in hippocampal slices. Spontaneous activity was measured with an aCSF-filled microelectrode placed within stratum radiatum in CA1.

[3] = system: Goa; assay type: cell-based, human; conditions: PTX-treated cells
Description: Cells were then incubated for 24 hours before addition of 100 ng/ml PTX, to inhibit activity of endogenous Gαi/o, and then incubated for a further 16-18 hours. Transfected cells were then assayed as per cAMP inhibition experiments, but co-stimulated with agonist and 100 nM forskolin.
as §2

[4] = system: membrane potential of pyramidal cells; test: Whole cell current clamp recording of membrane potential, CA1 pyramidal cells; assay type: cell-based, rat
Description: as §1
Whole cell patch clamp recording from hippocampal pyramidal cells: A slice was transferred to the recording chamber and perfused at 3 mL/min with aCSF at 32±0.5° C. Slices were visualised using IR-DIC optics with an Olympus BX151W microscope (Scientifica) and a CCD camera (Hitachi). […] Voltage and current recordings were obtained using an Axon Multiclamp 700B amplifier (Molecular Devices, USA) and digitised at 20 KHz. Data acquisition and analysis was performed using Pclamp 10 (Molecular Devices). For voltage clamp experiments, CA1 pyramidal cells were held at −60 mV. Peptides to interfere with G protein signalling were introduced via the patch pipette into the recorded cell.

[5] = system: adenosine-induced outward current in CA1 pyramidal cells; test: Whole-cell voltage clamp, adenosine-induced outward current with G protein interfering peptides; assay type: cell-based, rat; conditions: for mean amplitude of the adenosine-induced outward current with intracellular peptide: peptide 100 μM via patch pipette
Description: Whole cell patch clamp recording from hippocampal pyramidal cells: A slice was transferred to the recording chamber and perfused at 3 mL/min with aCSF at 32±0.5° C. Slices were visualised using IR-DIC optics with an Olympus BX151W microscope (Scientifica) and a CCD camera (Hitachi). Whole-cell current clamp recordings were made from pyramidal cells in area CA1 of the hippocampus using patch pipettes (5 to 10 MΩ) manufactured from thick walled glass (Harvard Apparatus, Edenbridge UK) and containing (mM): potassium gluconate 135, NaCl 7, HEPES 10, EGTA 0.5, phosphocreatine 10, MgATP 2, NaGTP 0.3 and biocytin 1 mg/mL (290 mOSM, pH 7.2). Voltage and current recordings were obtained using an Axon Multiclamp 700B amplifier (Molecular Devices, USA) and digitised at 20 KHz. Data acquisition and analysis was performed using Pclamp 10 (Molecular Devices). For voltage clamp experiments, CA1 pyramidal cells were held at −60 mV. Peptides to interfere with G protein signalling were introduced via the patch pipette into the recorded cell. […].
Drugs: Drugs were made up as stock solutions (1 to 10 mM) and then diluted in aCSF on the day of use. Compounds were dissolved in dimethyl-sulphoxide (DMSO, 0.01% final concentration of DMSO). […]. Peptides for interfering with G protein signalling were obtained from Hello Bio (Bristol, UK) and were based on published sequences (Varani et al., Adv Exp Med Biol 1051, 193-232 (2017)). […] The scrambled version was […]. […] Peptides were made up as stock solutions (2 mM) and stored at −20° C. The stock solutions were dissolved in filtered intracellular solution just before use.

[6] = system: isolated frog heart; test: Frog heart preparation, heart rate; parameters: species or system Xenopus leavis
Description: Frog heart preparation: Xenopus […] frogs (young adult males) were supplied from Portsmouth Xenopus Resource Centre. Frogs were euthanized with MS222 (0.2% at a pH of 7), decapitated and pithed. The animals were dissected to reveal the heart and the pericardium carefully removed. Heart contractions were measured with a force transducer (AD instruments). Heart rate was acquired via a PowerLab […] (AD instruments) controlled by LabChart 7 (AD instruments). The heart was regularly washed with ringer and drugs were applied directly to the heart.

[7] = system: urethane-anaesthetised, spontaneously breathing adult rats; test: In vivo anaesthetised rat preparation, heart rate and mean arterial blood pressure
[8] = rat hippocampal slices, CA1, read-out: IC50, inhibition of synaptic transmission (fEPSP slope)
[9] = IV, adenosine 1 mg·kg^−1, BnOCPA 10 μg·kg^−1, CPA 420 ng·kg^−1

In the case of `CCNC(=O)[C@H]1O[C@@H](n2cnc3c(N)ncnc32)[C@H](O)[C@@H]1O` [NECA, 5′-(N-Ethylcarboxamido) adenosine], the IC50 [1, 8] is reported as 0.0083 ± 0.003 µM, the “effect on seizure activity” value [2] is reported as “rapidly and reversibly abolished seizure activity; also recorded: blocks seizure activity in a reversible manner” and the “activation of / coupling to Goa” value [3] is reported as “coupled to a range of Gi/o subunits, and in particular Goa”.
For `NCC(CC(=O)O)c1ccc(Cl)cc1` (stereo not drawn) [baclofen], the “mean hyperpolarisation produced by baclofen in the presence of BnOCPA” value ([4]; BnOCPA 300 nM) was 6.5±0.43 mV, the “membrane potential after baclofen in the presence of BnOCPA (example)” value ([4]; baclofen (10 µM), BnOCPA 300 nM, from −67 mV) was −74 mV and the “mean hyperpolarisation produced by baclofen in control conditions” value ([4]; without BnOCPA) was 6.3±0.76 mV.
In the case of “scrambled peptide: scrambled version of the Goa peptide, sequence LNRGNAYLCIGMG”, the “effect of peptide on adenosine-induced outward current” value (“effect of peptide” for short) [5] is reported as “neither the scrambled peptide nor the Gob peptide had any effect on current amplitude” and the “mean amplitude of the adenosine-induced outward current with intracellular peptide” value (“mean amplitude … with intracellular peptide” below) ([5]; adenosine 10 μM) is reported as 43.4±2.4 pA.
For `Cn1c(=O)c2[nH]c(C3CCCC3)nc2n(C)c1=O` [8-CPT, 8-cyclopentyltheophylline], the “effect of the A1 receptor antagonist on agonist inhibition of synaptic transmission” value ([1]; 8-CPT 2 μM (adenosine) or 4 μM (BnOCPA)) was “reversed the inhibition of synaptic transmission caused by adenosine”.
“Goa interfering peptide: peptide interfering with G protein signalling, sequence MGIANNLRGCGLY” was tested, and the “effect of peptide” value [5] was “caused a significant attenuation of the adenosine-induced outward current” and the “mean amplitude … with intracellular peptide” value ([5]; adenosine 10 μM) was 20.9±3.6 pA.
“Gob interfering peptide: peptide interfering with G protein signalling, sequence MGIQNNLKYIGIC” was tested, and the “effect of peptide” value [5] was “neither the scrambled peptide nor the Gob peptide had any effect on current amplitude” and the “mean amplitude … with intracellular peptide” value ([5]; adenosine 10 μM) was 37.4±2.2 pA.
`Nc1ncnc2c1ncn2[C@@H]1O[C@H](CO)[C@@H](O)[C@H]1O` [adenosine] was tested, and the IC50 ([1]; Rattus norvegicus, read-out: IC50, inhibition of synaptic transmission by adenosine with 8-CPT, in the presence of 2 μM 8-CPT) was 125 ± 10 µM, the IC50 [1, 8] was 20 ± 4.3 µM and the “effect on seizure activity” value [2] was “reversibly blocks seizure activity”. For the same molecule, the “effect on seizure activity” value ([2]; listed as Adenosine) was “rapidly and reversibly abolished seizure activity”, the “membrane potential after agonist” value ([4]; adenosine 100 μM, CPA 300 nM) was −74.1±1.5 mV and the “mean change of membrane potential (hyperpolarisation)” value ([4]; adenosine 100 μM, CPA 300 nM, BnOCPA 300 nM-1 μM) was −4.7±0.5 mV. For the same molecule, the “mean amplitude of the outward current induced by adenosine” value ([5]; adenosine 10 μM, control conditions, held at −60 mV) was 43.9±3.1 pA, the “reduction of heart rate” value ([6]; adenosine 30 μM) was “about 15%” and the “reduction of heart rate by adenosine following BnOCPA” value ([6]; adenosine 30 μM after BnOCPA 300 nM) was 0.27±0.2 BPM. The “reduction / change of heart rate” value ([6]; adenosine 30 μM, BnOCPA 300 nM, CPA) was 6.25±0.6 BPM, the “heart rate after application” value ([6]; adenosine 30 μM, from 42±1.2 BPM) was 35.5±1.2 BPM and the “MAP after adenosine co-injected with BnOCPA” value ([7]; IV co-injection) was 51±4 mmHg. For the same molecule, the “change of HR by adenosine co-injected with BnOCPA” value ([7]; IV co-injection) was “about 12%”, the “mean change of HR by adenosine co-injected with BnOCPA” value ([7]; IV co-injection) was 51±4 BPM and the “change of HR” value [7, 9] was “about 66%”. The “heart rate (HR) after injection” value [7, 9] was 147±12 BPM, the “mean arterial blood pressure (MAP) after injection” value [7, 9] was 46±4 mmHg and the “reduction of MAP” value ([7]; adenosine IV) was “about 47%”. For the same molecule, the “effect on HR and BP” value ([7]; single anaesthetised rat preparation, IV) was “HR and BP depression”.
With `OC[C@H]1O[C@@H](n2cnc3c(N[C@@H]4CCC[C@H]4O)ncnc32)[C@H](O)[C@@H]1O` [HOCPA] the “activation of / coupling to Goa” value [3] was “coupled to a range of Gi/o subunits, and in particular Goa”.
